Reference: PubChem BioAssay (NCI)
Values joined by “and” are separate entries in the source; they are usually repeats but may differ in a detail not shown here. Identical values can stand only once.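 Grown in 96-well plates, cells were treated for 48 hours with each compound at five concentrations. Insufficient inhibition: endpoint recorded as highest concentration tested. Abbreviation: GI50, concentration required for 50% inhibition of growth. TGI: total growth inhibition.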

What was measured:
Experiment in all cases: NCI tumour cell line growth inhibition, 48 h
786-0 renal = tested on: 786-0 renal
A549 NSCLC = tested on: A549 NSCLC
ACHN renal = tested on: ACHN renal
CAKI-1 renal = tested on: CAKI-1 renal
CCRF-CEM leukemia = tested on: CCRF-CEM leukemia
DLD-1 colon = tested on: DLD-1 colon
DMS 114 small cell lung = tested on: DMS 114 small cell lung
DMS 273 small cell lung = tested on: DMS 273 small cell lung
EKVX NSCLC = tested on: EKVX NSCLC
HCC-2998 colon = tested on: HCC-2998 colon
HCT-15 colon = tested on: HCT-15 colon
HL-60(TB) leukemia = tested on: HL-60(TB) leukemia
HOP-62 NSCLC = tested on: HOP-62 NSCLC
HOP-92 NSCLC = tested on: HOP-92 NSCLC
HT29 colon = tested on: HT29 colon
IGROV1 ovarian = tested on: IGROV1 ovarian
K-562 leukemia = tested on: K-562 leukemia
KM12 colon = tested on: KM12 colon
KM20L2 colon = tested on: KM20L2 colon
LOX IMVI melanoma = tested on: LOX IMVI melanoma
LXFL 529 NSCLC = tested on: LXFL 529 NSCLC
M14 melanoma = tested on: M14 melanoma
M19-MEL melanoma = tested on: M19-MEL melanoma
MALME-3M melanoma = tested on: MALME-3M melanoma
MCF7 breast = tested on: MCF7 breast
MOLT-4 leukemia = tested on: MOLT-4 leukemia
NCI-H23 lung = tested on: NCI-H23 lung
NCI-H460 lung = tested on: NCI-H460 lung
NCI-H522 lung = tested on: NCI-H522 lung
NCI/ADR-RES ovarian = tested on: NCI/ADR-RES ovarian
OVCAR-3 ovarian = tested on: OVCAR-3 ovarian
OVCAR-4 ovarian = tested on: OVCAR-4 ovarian
OVCAR-5 ovarian = tested on: OVCAR-5 ovarian
OVCAR-8 ovarian = tested on: OVCAR-8 ovarian
RXF 393 renal = tested on: RXF 393 renal
RXF-631 renal = tested on: RXF-631 renal
SF-268 CNS = tested on: SF-268 CNS
SF-295 CNS = tested on: SF-295 CNS
SF-539 CNS = tested on: SF-539 CNS
SK-MEL-2 melanoma = tested on: SK-MEL-2 melanoma
SK-MEL-28 melanoma = tested on: SK-MEL-28 melanoma
SK-OV-3 ovarian = tested on: SK-OV-3 ovarian
SN12C renal = tested on: SN12C renal
SN12K1 renal = tested on: SN12K1 renal
SNB-19 CNS = tested on: SNB-19 CNS
SNB-75 CNS = tested on: SNB-75 CNS
SNB-78 CNS = tested on: SNB-78 CNS
SR leukemia = tested on: SR leukemia
SW-620 colon = tested on: SW-620 colon
TK-10 renal = tested on: TK-10 renal
U251 CNS = tested on: U251 CNS
UACC-257 melanoma = tested on: UACC-257 melanoma
UACC-62 melanoma = tested on: UACC-62 melanoma
UO-31 renal = tested on: UO-31 renal
XF 498 CNS = tested on: XF 498 CNS

Q: Which results are given for `CC(C)CCCCCCCCCCCCC(=O)NCC(=O)NC1C(C)OC(Nc2ncnc3nc[nH]c23)C(O)C1O` (centres undefined)?
A: GI50 (786-0 renal): 1.82 nM; TGI (786-0 renal): 232 nM; GI50 (A549 NSCLC): 3.24 nM; TGI (A549 NSCLC): 472 nM and 190 nM; GI50 (ACHN renal): 1.53 nM; TGI (ACHN renal): 6.66 nM; GI50 (CAKI-1 renal): 2.64 nM; TGI (CCRF-CEM leukemia): 223 nM; TGI (DLD-1 colon): 105 nM; GI50 (DMS 114 small cell lung): 1.61 nM and 14.8 nM; TGI (DMS 114 small cell lung): 263 nM and 50.6 nM; GI50 (DMS 273 small cell lung): 0.0184 nM; TGI (DMS 273 small cell lung): 0.586 nM; GI50 (EKVX NSCLC): 25.1 nM; GI50 (HCC-2998 colon): 1.21 nM; GI50 (HCT-15 colon): 573 nM; TGI (HCT-15 colon): 3840 nM; GI50 (HL-60(TB) leukemia): 1 nM; TGI (HL-60(TB) leukemia): 4.6 nM and 14.1 nM; TGI (HOP-62 NSCLC): 8.59 nM; GI50 (HOP-92 NSCLC): 0.324 nM; TGI (HOP-92 NSCLC): 2.19 nM and 4.91 nM; GI50 (HT29 colon): 4.53 nM; GI50 (IGROV1 ovarian): 3.19 nM; TGI (IGROV1 ovarian): 82 nM and < 44.4 nM; GI50 (K-562 leukemia): 41.4 nM; GI50 (KM12 colon): 0.442 nM; TGI (KM12 colon): 208 nM; GI50 (KM20L2 colon): 0.0575 nM; TGI (KM20L2 colon): 497 nM; GI50 (LOX IMVI melanoma): 0.2 nM; GI50 (LXFL 529 NSCLC): 3.36 nM; TGI (LXFL 529 NSCLC): 515 nM; GI50 (M14 melanoma): 2.52 nM; GI50 (M19-MEL melanoma): 0.861 nM; TGI (M19-MEL melanoma): 14 nM; GI50 (MALME-3M melanoma): 2.54 nM; TGI (MCF7 breast): 264 nM; GI50 (MOLT-4 leukemia): 2.13 nM; TGI (MOLT-4 leukemia): 7.88 nM and 32.3 nM; GI50 (NCI-H23 lung): 8.75 nM; TGI (NCI-H23 lung): 172 nM; TGI (NCI-H460 lung): 5.77 nM and < 11.1 nM; GI50 (NCI-H522 lung): 1.37 nM; TGI (NCI-H522 lung): 18.2 nM; TGI (NCI/ADR-RES ovarian): 71.6 nM; TGI (OVCAR-3 ovarian): 2.4 nM; GI50 (OVCAR-4 ovarian): 14.8 nM; TGI (OVCAR-4 ovarian): 8.03 nM; GI50 (OVCAR-5 ovarian): 8.14 nM; GI50 (OVCAR-8 ovarian): 1.87 nM; TGI (OVCAR-8 ovarian): 9.24 nM and 18.2 nM; GI50 (RXF 393 renal): 1.01 nM; TGI (RXF 393 renal): 36.9 nM; TGI (RXF-631 renal): 0.583 nM; GI50 (SF-268 CNS): 0.965 nM; TGI (SF-268 CNS): 343 nM; GI50 (SF-295 CNS): 17.6 nM; TGI (SF-295 CNS): < 29.5 nM; GI50 (SF-539 CNS): 11 nM; GI50 (SK-MEL-2 melanoma): 18.3 nM; GI50 (SK-MEL-28 melanoma): 8.69 nM and 48.4 nM; TGI (SK-MEL-28 melanoma): 485 nM and 1260 nM; GI50 (SK-OV-3 ovarian): 0.454 nM and 3.14 nM; TGI (SK-OV-3 ovarian): 3.97 nM and 28.6 nM; GI50 (SN12C renal): 5.48 nM; TGI (SN12C renal): 683 nM; TGI (SN12K1 renal): 116 nM; GI50 (SNB-19 CNS): 8.45 nM; GI50 (SNB-75 CNS): 52.2 nM; TGI (SNB-75 CNS): 3.16 nM; TGI (SNB-78 CNS): 7.18 nM and 6.18 nM; GI50 (SR leukemia): 4.51 nM; GI50 (SW-620 colon): 2.18 nM; TGI (SW-620 colon): 146 nM and 23.3 nM; TGI (TK-10 renal): 9.6 nM and 80.9 nM; GI50 (U251 CNS): 0.334 nM; TGI (U251 CNS): 38 nM; TGI (UACC-257 melanoma): 472 nM; GI50 (UACC-62 melanoma): 0.425 nM and 0.705 nM; TGI (UACC-62 melanoma): 8.92 nM and 22.6 nM; GI50 (UO-31 renal): 2.01 nM; GI50 (XF 498 CNS): 0.129 nM; TGI (XF 498 CNS): 0.925 nM
